11 compounds from patent US8796277B2, “Radioprotector compounds and related methods” (Peter MacCallum Cancer Institute, priority 2006, dated 2014) can be followed below.

Data set [1] has as its system transformed human keratinocyte cell line (FEP 1811). Put plainly: Clonogenic survival cell culture assay for radioprotective activity (cells irradiated to 12 Gy). To be noted: FEP 1811 cells, 12 Gy 137Cs gamma at 0.6 Gy per minute, irradiation started 30 minutes after drug addition, total drug exposure 60 minutes. In kind it is cell-based. Here is the method: (§1) The assay involves the transformed human keratinocyte cell line (FEP 1811) (as described by Smith et al (6)) and evaluation of cytotoxicity and radioprotective activity using the clonogenic survival endpoint. The details are described in detail in Martin et al (4) (the disclosure of which is included herein in its entirety by way of reference), but briefly, mid-log phase monolayer cultures are incubated with various concentrations of the test drugs for one hour, after which the monolayers are washed and dispersed into single cell suspensions using pronase, and finally appropriate numbers of cells are dispensed into Petri dishes. Colonies are counted after eight days incubation. For radioprotection studies, the monolayer cultures are irradiated in a ^137Cs-Gamma-cell radiation source to a dose of 12 Gy. The irradiation (with a dose rate of 0.6 Gy per minute) is started 30 minutes after addition of the test drug. After completion of irradiation, incubation of cultures is continued until the total time of exposure to the drug reaches 60 minutes. Cultures are then washed and plated for clonogenic survival as described for the cytotoxicity experiments. The experiments include untreated cultures as controls, and the plating efficiency of these controls is used to adjust that of the test cultures, in order to calculate the overall clonogenic survival.
However, for some of the compounds, the survival decreases at higher drug concentrations, due to cytotoxicity. Non-linear regression analysis of the data, for example that in FIG. 2, generates a parameter denoted the protection factor (PF), which is the ratio of the maximum survival to the radiation-only (zero drug) survival. PF is therefore a measure of radioprotective efficacy. The C50 and PF values, and for a number of the compounds are collected in Table 1, with standard deviations (SD) for those compounds that have been studied in replicate experiments.

For data set [2] the test system is unchanged. Put plainly: Clonogenic survival cell culture assay for cytotoxicity (un-irradiated cells). Format: cell-based. To be noted: un-irradiated FEP 1811 cells, one hour drug incubation, colonies counted after eight days; concentrations in FIG. 1 plotted in μM; read-out: cytotoxicity C50 (drug concentration corresponding to 50% survival). Here is the method: as §1
In general each experiment involves investigation of 4 or 5 different test concentrations of the drug under study, with and without irradiation. The data analysis for the experiments with un-irradiated cells generates curves showing the relationship between cell survival and drug concentration (FIG. 1), from which the drug concentration corresponding to 50% survival (C50) is determined.

On to `CN1CCN(c2ccc3[nH]c(-c4ccc5[nH]c(-c6ccc(N(C)C)cc6F)nc5c4)nc3c2)CC1` [Example 1, 4-dimethylamino-2-fluoro-1-(5′-(5″-(4′″-methylpiperazin-1′″-yl)benzimidazol-2″-yl)benzimidazol-2′-yl)benzene], for which the “radioprotection PF (protection factor: ratio of the maximum survival to the radiation-only (zero drug) survival)” value in data set [1] worked out at 9.3. Also, the IC50 in data set [2] stood at 28 µM.

With `CN1CCN(c2ccc3[nH]c(-c4ccc5[nH]c(-c6c(F)cc(N(C)C)cc6F)nc5c4)nc3c2)CC1` [Example 2, 2,6-difluoro-4-dimethylamino-1-(5′-(5″-(4′″-methylpiperazin-1′″-yl)benzimidazol-2″-yl)benzimidazol-2′-yl)benzene], the “radioprotection PF (protection factor: ratio of the maximum survival to the radiation-only (zero drug) survival)” value in data set [1] was determined as 6.4. Further, the IC50 in data set [2] is 25 µM.

Regarding `CNc1ccc(-c2nc3cc(-c4nc5cc(N6CCN(C)CC6)ccc5[nH]4)ccc3[nH]2)c(F)c1` [Example 3, 2-fluoro-4-methylamino-1-(5′-(5″-(4′″-methylpiperazin-1′″-yl)benzimidazol-2″-yl)benzimidazol-2′-yl)benzene], the “radioprotection PF (protection factor: ratio of the maximum survival to the radiation-only (zero drug) survival)” value in data set [1] amounted to 7. In addition, the IC50 in data set [2] turned out to be 218 µM.

As for `CN1CCN(c2ccc3[nH]c(-c4ccc5[nH]c(-c6ccc(N(C)C)cc6Cl)nc5c4)nc3c2)CC1` [Example 4, 2-chloro-4-dimethylamino-1-(5′-(5″-(4′″-methylpiperazin-1′″-yl)benzimidazol-2″-yl)benzimidazol-2′-yl)benzene], the “radioprotection PF (protection factor: ratio of the maximum survival to the radiation-only (zero drug) survival)” value in data set [1] is listed as 5.5. Further, the IC50 in data set [2] amounted to 18 µM.

In the case of `COc1ccc(-c2nc3cc(-c4nc5cc(N6CCN(C)CC6)ccc5[nH]4)ccc3[nH]2)cc1F` [Example 5, 3-fluoro-4-methoxy-1-(5′-(5″-(4′″-methylpiperazin-1′″-yl)benzimidazol-2″-yl)benzimidazol-2′-yl)benzene], the “radioprotection PF (protection factor: ratio of the maximum survival to the radiation-only (zero drug) survival)” value in data set [1] is 2.1. The IC50 in data set [2] stood at 91 µM.

In the case of `CN1CCN(c2ccc3[nH]c(-c4ccc5[nH]c(-c6ccc(F)cc6)nc5c4)nc3c2)CC1` [Example 6, 4-fluoro-1-{5′-[5″-(4′″-methylpiperazin-1′″-yl)benzimidazol-2″-yl]benzimidazol-2′-yl}benzene], the “radioprotection PF (protection factor: ratio of the maximum survival to the radiation-only (zero drug) survival)” value in data set [1] is 4.5. For the same compound, in data set [2], the IC50 came to 34 µM.

In the case of `CN1CCN(c2ccc3[nH]c(-c4ccc5[nH]c(-c6ccc(N(C)C)c(F)c6)nc5c4)nc3c2)CC1` [Example 7, 4-dimethylamino-3-fluoro-1-(5′-(5″-(4′″-methylpiperazin-1′″-yl)benzimidazol-2″-yl)benzimidazol-2′-yl)benzene], the “radioprotection PF (protection factor: ratio of the maximum survival to the radiation-only (zero drug) survival)” value in data set [1] came to 3.2. For the same compound, the IC50 in data set [2] is 26 µM.

For `CNc1ccc(F)c(-c2nc3cc(-c4nc5cc(N6CCN(C)CC6)ccc5[nH]4)ccc3[nH]2)c1` [Example 8, 2-fluoro-5-methylamino-1-(5′-(5″-(4′″-methylpiperazin-1′″-yl)benzimidazol-2″-yl)benzimidazol-2′-yl)benzene], the “radioprotection PF (protection factor: ratio of the maximum survival to the radiation-only (zero drug) survival)” value in data set [1] stood at 15.5. Further, the IC50 in data set [2] was 151 µM.

As for `CN1CCN(c2ccc3[nH]c(-c4ccc5[nH]c(-c6cc(N(C)C)ccc6F)nc5c4)nc3c2)CC1` [Example 9, 5-dimethylamino-2-fluoro-1-(5′-(5″-(4′″-methylpiperazin-1′″-yl)benzimidazol-2″-yl)benzimidazol-2′-yl)benzene], in data set [1], the “radioprotection PF (protection factor: ratio of the maximum survival to the radiation-only (zero drug) survival)” value is listed as 16.7. The IC50 in data set [2] came to 21.9 µM.

Take `CNc1cc(F)c(-c2nc3cc(-c4nc5cc(N6CCN(C)CC6)ccc5[nH]4)ccc3[nH]2)cc1F` [Example 10, 2,5-difluoro-4-methylamino-1-(5′-(5″-(4′″-methylpiperazin-1′″-yl)benzimidazol-2″-yl)benzimidazol-2′-yl)benzene]: the “radioprotection PF (protection factor: ratio of the maximum survival to the radiation-only (zero drug) survival)” value in data set [1] came out at 9.62. The IC50 in data set [2] came out at 51.4 µM.

Take `Cc1cc(N(C)C)ccc1-c1nc2ccc(-c3nc4ccc(N5CCN(C)CC5)cc4[nH]3)cc2[nH]1` [methylproamine, reference compound]: the “radioprotection PF (protection factor: ratio of the maximum survival to the radiation-only (zero drug) survival)” value in data set [1] came out at 10. The IC50 in data set [2] is 19.3 µM.
